T/C data for 22 compounds are collected here from PubChem BioAssay AID264 (DTP/NCI, 2004).

This experiment has as its system nude mice, LX-1 lung xenograft intrarenal, tumor weight T/C. The experiment can be described thus: NCI In Vivo Anticancer Drug Screen. Data for tumor model Human Lung LX-1 Xenograft (intrarenal inoculation) in NU/NU Swiss (nude) mice. The note with it: endpoint: mean tumor weight change, higher = larger tumour. The procedure: The antitumor activity of compounds was measured in mice bearing transplantable tumors. Survival or tumor size were measured and the results are expressed as the measurement made in the treated group (T) divided by the measurement made in the vehicle treated control group (C). The tumor model used in this assay is Human Lung LX-1 Xenograft (intrarenal inoculation) in NU/NU Swiss (nude) mice
(In general: In xenograft studies the graft and the host belong to different species.)

The mark [1] stands for this setting: dose: 300.0 mg/kg/injection, schedule: Q04DX003 (sc), vehicle: Klucel (hydroxypropylcellulose) (HPC).
Where [2] appears, read: dose: 600.0 mg/kg/injection, schedule: Q04DX003 (sc), vehicle: Klucel (hydroxypropylcellulose) (HPC).
Where [3] appears, read: dose: 1200.0 mg/kg/injection, schedule: Q04DX003 (sc), vehicle: Klucel (hydroxypropylcellulose) (HPC).
Setting [4] is: dose: 25.0 mg/kg/injection, schedule: Q04DX003 (sc), vehicle: saline.
[5] abbreviates: dose: 50.0 mg/kg/injection, schedule: Q04DX003 (sc), vehicle: saline.
Where [6] appears, read: dose: 100.0 mg/kg/injection, schedule: Q01DX010 (sc), vehicle: saline with Tween-80.
The mark [7] stands for this setting: dose: 300.0 mg/kg/injection, schedule: Q04DX003 (sc), vehicle: saline with Tween-80.
Where [8] appears, read: dose: 600.0 mg/kg/injection, schedule: Q04DX003 (sc), vehicle: saline with Tween-80.
The mark [9] stands for this setting: dose: 200.0 mg/kg/injection, schedule: Q04DX003 (sc), vehicle: saline.
Where [10] appears, read: dose: 150.0 mg/kg/injection, schedule: Q04DX003 (sc), vehicle: saline with Tween-80.

“And” between values parts separate entries of the source, which are not always exact repeats. Equal entries are not always repeated. Results filed as inconclusive are left out.

With `C#C[C@]1(O)CC[C@H]2[C@@H]3CCc4cc(O)ccc4[C@H]3CC[C@@]21C`, the T/C reads like this: under setting [1], 70 % of control; under setting [2], 102 % of control; under setting [3], 50 % of control; (dose: 2400.0 mg/kg/injection, schedule: Q04DX003 (sc), vehicle: Klucel (hydroxypropylcellulose) (HPC)) 55 % of control.
For `CCCCCCCCCCCCCCCC(=O)Nc1ccn(C2OC(CO)C(O)C2O)c(=O)n1` (configuration not stated), the T/C (dose: 150.0 mg/kg/injection, schedule: Q04DX003 (sc), vehicle: water) is 32 % of control and 33 % of control.
`O=C1NC2(CCCCC2)C(=O)N1CCN(CCCl)CCCl`: the T/C was 524 % of control (dose: 4.0 mg/kg/injection, schedule: Q01DX010 (sc), vehicle: suspension in saline); 85 % of control (dose: 6.0 mg/kg/injection, schedule: Q01DX010 (sc), vehicle: saline); 39 % of control and 58 % of control (dose: 6.0 mg/kg/injection, schedule: Q01DX010 (sc), vehicle: suspension in saline); 244 % of control (dose: 8.0 mg/kg/injection, schedule: Q01DX010 (sc), vehicle: suspension in saline); 31 % of control (dose: 12.0 mg/kg/injection, schedule: Q01DX010 (sc), vehicle: saline); 115 % of control (dose: 16.0 mg/kg/injection, schedule: Q01DX010 (sc), vehicle: suspension in saline). Besides, where the note is “dose: 32.0 mg/kg/injection, schedule: Q01DX010 (sc), vehicle: suspension in saline”, the T/C is 63 % of control.
For `[I][Hg][CH2]C1OCCOC1[CH2][Hg][I]` (configuration not stated), the T/C runs as follows: (dose: 150.0 mg/kg/injection, schedule: Q04DX003 (sc), vehicle: Klucel (hydroxypropylcellulose) (HPC)) 88 % of control; under setting [1], 74 % of control; under setting [2], 79 % of control; under setting [3], 64 % of control.
Take `COC1/C=C\C=C(/C)C(=O)NC2=CC(=O)C=C(C2=O)C(OC)C(C)CC(OC)C(OC)C(C)/C=C(/C)C1OC(N)=O` (configuration not stated): the T/C (dose: 4.5 mg/kg/injection, schedule: Q04DX003 (sc), vehicle: Klucel (hydroxypropylcellulose) (HPC)) was 82 % of control.
Turning to `OCCN1CCN(CC/C=C2/c3ccccc3Sc3ccc(Cl)cc32)CC1`, the T/C runs as follows: (dose: 6.25 mg/kg/injection, schedule: Q04DX003 (sc), vehicle: saline) 78 % of control; (dose: 12.5 mg/kg/injection, schedule: Q04DX003 (sc), vehicle: saline) 68 % of control; under setting [4], 52 % of control; under setting [5], 43 % of control.
For the compound `CC/C(=C(/CC)c1ccc(O)cc1)c1ccc(O)cc1`, the T/C (dose: 50.0 mg/kg/injection, schedule: Q01DX010 (sc), vehicle: saline with Tween-80) was 106 % of control and the T/C under setting [6] was 105 % of control.
Take `COc1cc(O)c2c(O)c3c(c4c2c1[C@]1(C4)C(C)=CCCC1(C)C)[C@H](O)[C@@]1(O)CC(=O)C(C(N)=O)=C(O)[C@@]1(O)C3=O`: the T/C under setting [7] is 55 % of control; the T/C under setting [8] is 58 % of control; the T/C (dose: 1200.0 mg/kg/injection, schedule: Q04DX003 (sc), vehicle: saline with Tween-80) is 42 % of control.
For the compound `C(C#CCN1CCOCC1)#CCN1CCOCC1`, the T/C under setting [1] is 124 % of control, the T/C under setting [2] is 76 % of control and the T/C under setting [3] was 84 % of control.
For `OC(C1CO1)C(O)C1CO1` (configuration not stated), the T/C reads like this: (dose: 1.0 mg/kg/injection, schedule: Q01DX010 (sc), vehicle: saline) 73 % of control; (dose: 2.0 mg/kg/injection, schedule: Q01DX010 (sc), vehicle: saline) 66 % of control.
As for `Nc1ncnc2c1ncn2C1OC(CO)C(O)C1O` (configuration not stated), the T/C (dose: 25.0 mg/kg/injection, schedule: Q01DX010 (sc), vehicle: saline) was 156 % of control; the T/C (dose: 50.0 mg/kg/injection, schedule: Q01DX010 (sc), vehicle: saline) is 97 % of control; the T/C under setting [9] was 102 % of control; the T/C (dose: 400.0 mg/kg/injection, schedule: Q04DX003 (sc), vehicle: saline) was 20 % of control; the T/C (dose: 800.0 mg/kg/injection, schedule: Q04DX003 (sc), vehicle: saline) is 117 % of control; the T/C (dose: 1600.0 mg/kg/injection, schedule: Q04DX003 (sc), vehicle: saline) was 70 % of control.
`CCN1/C(=C/C=C/C=C/c2sc3ccccc3[n+]2CC)Sc2ccccc21`: the T/C (dose: 1.5 mg/kg/injection, schedule: Q04DX003 (sc), vehicle: saline) is 57 % of control.
In the case of `O=C1NCC(Br)C(=O)N1` (configuration not stated), the T/C reads like this: under setting [10], 99 % of control; under setting [7], 90 % of control.
For `O=C1CN(Cc2ccc3c(c2)OCO3)NO1`, the T/C (dose: 75.0 mg/kg/injection, schedule: Q04DX003 (sc), vehicle: saline with Tween-80) is 63 % of control; the T/C under setting [10] was 76 % of control; the T/C under setting [7] was 63 % of control; the T/C under setting [8] is 46 % of control.
As to `COC1C(O)CC(OC2CC(Oc3cc4cc5c(c(O)c4c(O)c3C)C(=O)[C@@H](OC3CC(OC4CC(OC6CC(C)(O)C(OC(C)=O)C(C)O6)C(O)C(C)O4)C(O)C(C)O3)[C@H]([C@H](OC)C(=O)[C@@H](O)[C@@H](C)O)C5)OC(C)C2OC(C)=O)OC1C` (some centres not stated), the T/C (dose: 0.3 mg/kg/injection, schedule: Q04DX003 (sc), vehicle: Klucel (hydroxypropylcellulose) (HPC)) is 87 % of control; the T/C (dose: 0.6 mg/kg/injection, schedule: Q04DX003 (sc), vehicle: Klucel (hydroxypropylcellulose) (HPC)) is 68 % of control; the T/C (dose: 1.2 mg/kg/injection, schedule: Q04DX003 (sc), vehicle: Klucel (hydroxypropylcellulose) (HPC)) was 36 % of control.
With `NC(C(=O)O)c1ccc(CBr)cc1` (configuration not stated), the T/C (dose: 300.0 mg/kg/injection, schedule: Q04DX003 (sc), vehicle: acid diluted with saline) is 96 % of control.
Turning to `CCCCc1ccc(-n2c(C)c(COC(=O)NC)c(COC(=O)NC)c2C)cc1`, the T/C was 111 % of control (dose: 12.5 mg/kg/injection, schedule: Q01DX010 (sc), vehicle: Klucel (hydroxypropylcellulose) (HPC)); 92 % of control (dose: 25.0 mg/kg/injection, schedule: Q01DX010 (sc), vehicle: Klucel (hydroxypropylcellulose) (HPC)); 100 % of control (dose: 50.0 mg/kg/injection, schedule: Q01DX010 (sc), vehicle: Klucel (hydroxypropylcellulose) (HPC)); 104 % of control (dose: 100.0 mg/kg/injection, schedule: Q01DX010 (sc), vehicle: Klucel (hydroxypropylcellulose) (HPC)).
On to `CC(=O)OCC1OC([S-])C(OC(C)=O)C(OC(C)=O)C1OC(C)=O.CC[PH+](CC)CC.CC[PH+](CC)CC.[Au].[Au]` (configuration not stated), for which the T/C is 110 % of control (dose: 3.12 mg/kg/injection, schedule: Q04DX003 (sc), vehicle: Klucel (hydroxypropylcellulose) (HPC)); 88 % of control (dose: 6.25 mg/kg/injection, schedule: Q04DX003 (sc), vehicle: Klucel (hydroxypropylcellulose) (HPC)); 75 % of control (dose: 12.5 mg/kg/injection, schedule: Q04DX003 (sc), vehicle: Klucel (hydroxypropylcellulose) (HPC)).
As to `Brc1c(NC2=NCCN2)ccc2nccnc12`, the T/C was 75 % of control under setting [4]; 55 % of control under setting [5]; 79 % of control (dose: 100.0 mg/kg/injection, schedule: Q04DX003 (sc), vehicle: saline); 69 % of control under setting [9].
For the compound `COC1=C2C[C@@H](C)C[C@@H](OC)[C@@H](O)[C@H](C)/C=C(\C)[C@@H](OC(N)=O)[C@H](OC)/C=C\C=C(/C)C(=O)NC(=CC1=O)C2=O`, the T/C (dose: 1.0 mg/kg/injection, schedule: Q04DX003 (sc), vehicle: saline) was 77 % of control; the T/C (dose: 2.0 mg/kg/injection, schedule: Q04DX003 (sc), vehicle: saline) was 57 % of control; the T/C (dose: 4.0 mg/kg/injection, schedule: Q04DX003 (sc), vehicle: saline) is 104 % of control; the T/C (dose: 8.0 mg/kg/injection, schedule: Q04DX003 (sc), vehicle: saline) was 81 % of control.
On to `Cc1c(N)nc(C(CC(N)=O)NCC(N)C(N)=O)nc1C(=O)NC(C(=O)NC(C)C(O)CC(=O)NC(C(=O)NC(OC1OC(C)C(N)C(O)C1O)C(O)c1nc(-c2nc(C(=O)NCCCC(N)CC(=O)NCCCNCCCCN)cs2)cs1)C(C)O)C(OC1OC(CO)C(O)C(O)C1OC1OC(CO)C(O)C(OC(N)=O)C1O)c1cnc[nH]1` (configuration not stated), for which the T/C (dose: 16.0 mg/kg/injection, schedule: Q04DX003 (sc), vehicle: saline) is 73 % of control.
On to `CC1C=NNC1=O` (configuration not stated), for which the T/C runs as follows: under setting [6], 97 % of control; (dose: 200.0 mg/kg/injection, schedule: Q01DX010 (sc), vehicle: saline with Tween-80) 270 % of control; (dose: 400.0 mg/kg/injection, schedule: Q01DX010 (sc), vehicle: saline with Tween-80) 82 % of control.
